The values below come from patent publication US20070270471A1, “Compounds Which Potentiate Glutamate Receptor and Uses Thereof in Medicine” (GLAXO GROUP LIMITED, priority 2004, published 2007).

For this test, the target named is T1, human GluR2 flip (unedited) AMPA receptor subunit (Homo sapiens, UniProt P42262).
T1 construct: expressed in transfected cells; host or cells: HEK 293 cells, stably expressing or transiently transfected
The test is described as follows: Calcium influx fluorescence assay (FLUO4, FLIPR). The class given is cell-based. As to conditions: HEK 293 cells expressing human GluR2 flip (unedited); potentiation of response to 100 μM glutamate; peak fluorescence. The procedure: The ability of the compounds of the invention to potentiate glutamate receptor-mediated response were determined a) by using fluorescent calcium-indicator dyes such as FLUO4 and additionally for some compounds, b) by measuring glutamate-evoked current recorded from human GluR2 flip unedited HEK293 cells.
a) Calcium Influx Fluorescence Assay
384 well plates were prepared containing confluent monolayer of HEK 293 cells either stably expressing or transiently transfected with human GluR2 flip (unedited) AMPA receptor subunit. These cells form functional homotetrameric AMPA receptors. […]
The cell plate was then transferred into a fluorescence imaging plate based reader [such as the FLIPR384 (Molecular Devices)]. A baseline fluorescence reading was taken over a 10 to 240 second period, and then 10 μL from each plate containing a compound of the invention made up in standard buffer solution (in a concentration range from 100 μM to 10 μM) was added (to give a final concentration in the range 30 μM to 3 μM). The fluorescence was read over 5 minute period. […] The fluorescence was then read over a 4 minute period. The activities of the compounds of the invention and reference compounds were determined by measuring peak fluorescence after the last addition. The activity was also expressed relative to the fluorescence increase induced by cyclothiazide at their maximum response (i.e. greater than 30 μM).

T1 sequence (P42262 25-883 isoform P42262-2 limits assumed): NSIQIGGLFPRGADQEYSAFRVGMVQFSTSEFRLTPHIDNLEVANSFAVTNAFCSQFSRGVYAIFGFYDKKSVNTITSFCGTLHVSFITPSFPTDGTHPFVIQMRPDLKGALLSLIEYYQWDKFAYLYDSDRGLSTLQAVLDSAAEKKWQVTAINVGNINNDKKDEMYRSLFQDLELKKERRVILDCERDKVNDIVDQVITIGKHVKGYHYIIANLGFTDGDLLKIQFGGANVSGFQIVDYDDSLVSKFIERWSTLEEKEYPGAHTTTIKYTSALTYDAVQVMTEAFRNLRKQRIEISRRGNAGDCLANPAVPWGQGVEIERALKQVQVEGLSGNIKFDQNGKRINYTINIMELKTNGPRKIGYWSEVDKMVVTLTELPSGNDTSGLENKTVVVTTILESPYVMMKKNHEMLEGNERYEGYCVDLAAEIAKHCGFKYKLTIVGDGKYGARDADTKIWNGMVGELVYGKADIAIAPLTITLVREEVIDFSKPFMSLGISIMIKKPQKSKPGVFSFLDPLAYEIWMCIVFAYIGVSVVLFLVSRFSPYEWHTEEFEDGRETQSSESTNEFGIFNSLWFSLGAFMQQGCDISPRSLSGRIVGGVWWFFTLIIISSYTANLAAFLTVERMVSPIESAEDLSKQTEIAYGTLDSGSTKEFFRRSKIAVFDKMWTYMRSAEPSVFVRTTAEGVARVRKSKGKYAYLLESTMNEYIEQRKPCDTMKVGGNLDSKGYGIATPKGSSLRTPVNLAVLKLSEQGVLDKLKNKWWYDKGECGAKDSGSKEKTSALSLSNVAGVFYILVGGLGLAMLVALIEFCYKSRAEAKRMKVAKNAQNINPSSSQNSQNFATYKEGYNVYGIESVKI

With `CC(C)S(=O)(=O)N[C@@H]1CN(C)C[C@H]1c1ccc(-c2cccc(N(C)S(C)(=O)=O)c2)cc1` (relative stereo) [Example 19, N-(trans-1-methyl-4-{3′-[methyl(methylsulfonyl)amino]-4-biphenylyl}-3-pyrrolidinyl)-2-propanesulfonamide], the half-maximal effective concentration (EC50) was 1580 nM.
